# Reference: patent publication US20050208163A1, “Compositions containing avocado leaf extract for lowering cholesterol levels” (priority 2002, published 2005)
# Tested on: Hep G2 hepatoma cells
# Assay: Drymifolia leaf extract bioassay: cholesterol secretion by hepatoma cells (AMPLEX RED cholesterol kit)
# Format: cell-based
# Settings: for activity at 25 µg/mL: HepG2, Conc. 25 μg/ml
# Experimental: To measure cholesterol secretion by hepatoma cells following treatment by drymifolia leaf extract prepared in accordance with the present invention, a bioassay was performed. Samples for the bioassay were prepared by weighing out 100 mg of the spray dried powders of drymifolia leaf extracts. A 50 mg/ml total extract of the sample was then prepared by sequential addition of DMSO:ethanol:water in a ratio of 5:3:2. For example, for 100 mg of powder, 1 ml DMSO, 0.6 ml ethanol, and 0.4 ml water would be used. To prepare dilutions of sample for testing, the samples were diluted from the stock concentration of 50 mg/ml to test concentrations (i.e. 400, 200, 100 μg/ml) in tissue culture media. For the 400 μg/ml concentration, 8 μl of stock solution added to 992 μl tissue culture media would yield 400 μg/ml. From there, serial two fold dilutions would result in the remaining test concentration. Hep G2 hepatoma cells (ATCC, Manassas, Va.) were plated at 2×10^5/well in standard 24 well tissue culture plates. Following plating, the cells were incubated overnight. The next day, the media in the wells was aspirated and replaced with fresh media containing the diluted sample. Stock solutions of the samples were prepared as total extracts at 50 mg/ml. The samples were then diluted in tissue culture media just prior to adding to the cells. The cells were again incubated overnight with the samples. Then, the supernatant fluids were tested for the presence of cholesterol using the AMPLEX RED cholesterol kit (Molecular Probes, Eugene, Oreg.). The kit measures total cholesterol in the supernatants following enzymatic conversion of any cholesterol esters to free cholesterol using cholesterol esterase. The effect of the samples is calculated by dividing the mean relative fluorescence derived from the test samples by the mean relative fluorescence of untreated controls.
# LIPITOR® and pure rutin samples were prepared in the same manner as the drymifolia leaf extract in the bioassay. The drymifolia leaf extract samples performed as well as or better than LIPITOR®. […] Pure rutin in the amount equivalent to the amount found in the lots 3193, 3194, 3811, and 3831 was tested. More specifically, the amount of rutin found in the lots was 3.44 mg/g, 4.36 mg/g, 4.42 mg/g and 4.13 mg/g, respectively. At the highest concentration of the drymifolia leaf extract samples tested (which was 400 ug/ml), there could be up to 25 ug/ml of rutin. Thus, the amount of pure rutin used in the bioassay was 3.125 to 25 ug/ml. […]
# [1] = Homo sapiens, read-out: % ctrl (cholesterol release)
SMILES,"Mean (relative fluorescence, cholesterol release) (Conc. 25 μg/ml)","Mean (relative fluorescence, cholesterol release) (Conc. 50 μg/ml)","Mean (relative fluorescence, cholesterol release) (Conc. 100 μg/ml)","Mean (relative fluorescence, cholesterol release) (Conc. 200 μg/ml)",activity at 25 µg/mL [1] [%],"activity at 50 µg/mL (Homo sapiens, HepG2, Conc. 50 μg/ml, read-out: % ctrl (cholesterol release)) [%]","activity at 100 µg/mL (Homo sapiens, HepG2, Conc. 100 μg/ml, read-out: % ctrl (cholesterol release)) [%]","activity at 200 µg/mL (Homo sapiens, HepG2, Conc. 200 μg/ml, read-out: % ctrl (cholesterol release)) [%]","Mean (relative fluorescence, cholesterol release) (Conc. 3.125 μg/ml)","Mean (relative fluorescence, cholesterol release) (Conc. 6.25 μg/ml)","Mean (relative fluorescence, cholesterol release) (Conc. 12.5 μg/ml)","activity at 3.125 µg/mL (Homo sapiens, HepG2, Conc. 3.125 μg/ml, read-out: % ctrl (cholesterol release)) [%]","activity at 6.25 µg/mL (Homo sapiens, HepG2, Conc. 6.25 μg/ml, read-out: % ctrl (cholesterol release)) [%]","activity at 12.5 µg/mL (Homo sapiens, HepG2, Conc. 12.5 μg/ml, read-out: % ctrl (cholesterol release)) [%]"
"CC(C)c1c(C(=O)Nc2ccccc2)c(-c2ccccc2)c(-c2ccc(F)cc2)n1CC[C@@H](O)C[C@@H](O)CC(=O)O [LIPITOR ®, atorvastatin]",18308.5,18591,16871.5,16378,99.2,101,91.5,88.8,,,,,,
"C[C@@H]1O[C@@H](OC[C@H]2O[C@@H](Oc3c(-c4ccc(O)c(O)c4)oc4cc(O)cc(O)c4c3=O)[C@H](O)[C@@H](O)[C@@H]2O)[C@H](O)[C@H](O)[C@H]1O [Pure Rutin, rutin]",16817.5,,,,91.2,,,,18609.5,19069,17835,101,103,96.7
